From patent publication US11358931B2, “Selective androgen receptor modulators (SARMs) and uses thereof” (priority 2007, dated 2022) come the findings set out here.

The target of one series is hAR (Homo sapiens, UniProt P10275). The series can be described thus: cell-based.
The target of a further series is T1, hPR-B (Homo sapiens, UniProt P06401).
T1 construct: expressed in transfected cells
T1 sequence (P06401 1-933): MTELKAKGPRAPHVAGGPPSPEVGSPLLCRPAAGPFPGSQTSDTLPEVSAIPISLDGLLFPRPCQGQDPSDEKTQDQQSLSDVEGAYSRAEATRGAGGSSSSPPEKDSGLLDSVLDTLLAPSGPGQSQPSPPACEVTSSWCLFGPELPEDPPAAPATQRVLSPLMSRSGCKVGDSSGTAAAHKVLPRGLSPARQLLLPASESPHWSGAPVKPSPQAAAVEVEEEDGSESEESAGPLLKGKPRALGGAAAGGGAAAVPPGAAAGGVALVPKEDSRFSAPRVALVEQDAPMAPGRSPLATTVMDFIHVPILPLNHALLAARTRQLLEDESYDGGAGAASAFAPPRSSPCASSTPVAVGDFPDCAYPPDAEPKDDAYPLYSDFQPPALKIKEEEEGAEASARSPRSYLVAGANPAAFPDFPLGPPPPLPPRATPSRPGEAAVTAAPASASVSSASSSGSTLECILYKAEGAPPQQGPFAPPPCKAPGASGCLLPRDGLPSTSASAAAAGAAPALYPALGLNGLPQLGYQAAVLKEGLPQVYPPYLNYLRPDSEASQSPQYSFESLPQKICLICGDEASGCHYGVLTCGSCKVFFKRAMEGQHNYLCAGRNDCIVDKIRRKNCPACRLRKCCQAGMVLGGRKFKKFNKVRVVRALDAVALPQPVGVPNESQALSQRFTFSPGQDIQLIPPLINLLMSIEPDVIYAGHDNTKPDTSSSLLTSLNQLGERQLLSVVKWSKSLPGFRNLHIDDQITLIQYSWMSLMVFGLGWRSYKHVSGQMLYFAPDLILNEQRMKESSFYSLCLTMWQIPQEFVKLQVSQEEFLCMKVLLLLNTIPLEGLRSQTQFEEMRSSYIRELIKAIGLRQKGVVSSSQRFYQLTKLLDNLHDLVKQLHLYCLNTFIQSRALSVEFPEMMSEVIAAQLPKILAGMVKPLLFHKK
Kind of series: Co-transfection assay, other nuclear receptors: hPR-B. The series is classed as cell-based. From the text: An exemplary co-transfection assay is the luciferase reporter assay (Evans, Science 240: 889-895 (1988), Berger et al., J Steroid Biochem Mol Biol 41: 733-738 (1992)) can be used to establish the ability of a compound of formulae I, II or III to activate (agonist activity) or repress (antagonist activity) the ability of the human androgen receptor (hAR) to induce gene expression. A human cell line containing endogenously expressed hAR (e.g., MDA-MB-453 cells, derived from a human mammary carcinoma, American Tissue Type Culture Collection [ATCC] HTB 131) can be transfected with an androgen responsive luciferase reporter plasmid to measure the level of cross-reactivity of the compound on other nuclear receptors (such as the glucocorticoid receptor (GR), estrogen receptor (ER), mineralocorticoid receptor (MR), progesterone receptor (PR), retinoid receptor (RAR), retinoid X receptor (RXR), peroxisome proliferator activating receptors alpha (PPARα), gamma (PPARγ) and delta (PPARδ), liver X receptor (LXR), farnesyl X receptor (FXR) and the pregnane X receptor (PXR)). In the assay, luciferase reporter plasmids containing the cDNA for firefly luciferase (LUC) under the control of a conditional promoter containing hormone response elements recognized by the appropriate nuclear receptor are co-transfected into cells with the nuclear receptor expression plasmid. […]

Series [1] is described as follows: In vitro genotoxicity assays. From the text: Compounds disclosed herein can be evaluated for efficacy and toxicity using known methods. For example, the toxicology of a particular compound, or of a subset of the compounds, sharing certain chemical moieties, may be established by determining in vitro toxicity towards a cell line, such as a bacterial or mammalian, including human, cell line. The results of such studies are often predictive of toxicity in animals, such as mammals, or more specifically, humans. Exemplary assays include bacterial reverse mutation assays (e.g., see Ames et al., Mutation Research 31: 347-364 (1975); Green et al., Mutation Research 38: 3-32 (1976); and Maron et al., Mutation Research 113: 173-215 (1983), cytological methods for detecting chemical mutagens (Evans, Chemical Mutagens, Principles and Methods for their Detection, Vol. 4 (Plenum Press, New York, N.Y. (1976))), chromosomal aberration assays (Galloway et al., Mutation Research 312(3): 241-261 (1994)), genotoxicity assays (Federal Register 61: 18198-18202 (1996) and Federal Register 62: 16026-16030 (1997)) and cytogenetic assays (Preston et al., Mutation Research 87: 143-188 (1981)).

hAR, sequence (P10275 whole entry): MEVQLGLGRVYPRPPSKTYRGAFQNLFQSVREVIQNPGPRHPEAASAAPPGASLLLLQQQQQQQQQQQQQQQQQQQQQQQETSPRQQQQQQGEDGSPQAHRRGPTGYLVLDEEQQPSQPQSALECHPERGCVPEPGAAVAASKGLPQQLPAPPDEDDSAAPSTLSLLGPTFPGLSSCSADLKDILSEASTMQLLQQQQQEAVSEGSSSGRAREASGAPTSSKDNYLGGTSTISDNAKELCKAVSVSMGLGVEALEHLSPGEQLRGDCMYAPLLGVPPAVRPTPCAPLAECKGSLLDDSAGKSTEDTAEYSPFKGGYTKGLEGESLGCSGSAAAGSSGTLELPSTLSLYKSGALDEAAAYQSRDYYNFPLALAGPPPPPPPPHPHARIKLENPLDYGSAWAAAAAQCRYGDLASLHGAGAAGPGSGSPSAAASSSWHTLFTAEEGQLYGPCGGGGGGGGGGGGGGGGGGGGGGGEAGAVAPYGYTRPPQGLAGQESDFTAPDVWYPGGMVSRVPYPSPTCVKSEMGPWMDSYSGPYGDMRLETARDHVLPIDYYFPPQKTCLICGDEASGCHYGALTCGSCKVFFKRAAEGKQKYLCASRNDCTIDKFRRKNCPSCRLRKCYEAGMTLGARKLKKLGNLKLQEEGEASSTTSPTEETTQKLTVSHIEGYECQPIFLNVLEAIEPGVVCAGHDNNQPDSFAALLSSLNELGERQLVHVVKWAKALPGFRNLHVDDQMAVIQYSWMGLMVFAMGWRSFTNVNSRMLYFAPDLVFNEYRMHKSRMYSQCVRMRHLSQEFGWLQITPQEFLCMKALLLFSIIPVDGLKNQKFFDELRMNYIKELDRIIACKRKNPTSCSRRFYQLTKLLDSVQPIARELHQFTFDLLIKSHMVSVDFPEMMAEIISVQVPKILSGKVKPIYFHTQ

`N#Cc1ccc(N2CCC[C@@H]2[C@@H](O)C(F)(F)F)cc1C(F)(F)F` [Compound 102, R,R-4-(2-(1-Hydroxyl-2,2,2-trifluoroethyl)-pyrrolidinyl)-2-trifluoromethyl-benzonitrile]: the EC50 (in general, the concentration that produces a half-maximal response) on hAR turned out to be 3.1 nM. Further, the Emax on hAR (MDA-MB-453, read-out: efficacy relative to dihydrotestosterone (DHT)) came out at 59%. Also, inhibition on hPR-B was half-maximal at 280 nM (IC50). At hPR-B (progesterone-induced activation), the “antagonism of progesterone-induced activation of hPR-B (efficacy)” value amounted to 74%. The genotoxicity entry in series [1] was “negative”.
